{"source": "patent US20230218648A1", "about": "“USE OF HUMAN MILK OLIGOSACCHARIDES IN NUTRITIONAL COMPOSITIONS FOR ENHANCING BONE DEVELOPMENT AND/OR BONE STRENGTH” (SOCIETE DES PRODUITS NESTLE S.A., priority 2020, published 2023)", "origin": "cited, not measured here", "system": "osteoclast and osteoblast biology", "conditions": "reported by C.A. Cowardin et al., PNAS, 2019, 116", "data": [{"substance": "2′-fucosyllactose [2′-FL]", "values": [{"measurement": "changes in bone-biology", "value": "failed to elicit changes in bone-biology"}]}]}
